Earlier results as cited in US20100048598A1, “TOPICAL COMPOSITIONS COMPRISING 5-ALPHA REDUCTASE INHIBITORS” (priority 2008, published 2010).

Assays:
type II 5α-reductase = target: T1, type II 5α-reductase (Homo sapiens, UniProt P31213); settings: relative to finasteride
T1 sequence (P31213 1-254): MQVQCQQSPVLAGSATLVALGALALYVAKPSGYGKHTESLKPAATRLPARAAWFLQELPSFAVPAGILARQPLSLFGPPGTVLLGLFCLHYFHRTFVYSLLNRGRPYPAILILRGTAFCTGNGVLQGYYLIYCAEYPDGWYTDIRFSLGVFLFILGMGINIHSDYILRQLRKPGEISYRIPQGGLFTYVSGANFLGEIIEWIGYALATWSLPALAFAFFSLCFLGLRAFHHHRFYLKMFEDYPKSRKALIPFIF

[1] = orally administered
type I 5α-reductase = target: T2, type I 5α-reductase (Homo sapiens, UniProt P18405); settings: relative to finasteride
T2 sequence (P18405 1-259): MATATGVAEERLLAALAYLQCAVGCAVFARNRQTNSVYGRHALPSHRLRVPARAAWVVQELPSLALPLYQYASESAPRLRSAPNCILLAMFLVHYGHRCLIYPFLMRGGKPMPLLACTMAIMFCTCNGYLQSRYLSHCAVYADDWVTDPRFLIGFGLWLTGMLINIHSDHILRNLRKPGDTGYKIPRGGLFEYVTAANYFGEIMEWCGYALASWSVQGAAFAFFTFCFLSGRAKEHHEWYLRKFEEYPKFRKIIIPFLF

DHT = settings: daily oral 1 mg dose
androgenic alopecia = settings: 1 mg/day, treated men

C[C@]12C=CC(=O)N[C@@H]1CC[C@@H]1[C@@H]2CC[C@]2(C)[C@@H](C(=O)Nc3cc(C(F)(F)F)ccc3C(F)(F)F)CC[C@@H]12 [Dutasteride, (5α,17β)-N-{2,5-bis(trifluoromethyl)phenyl}-3-oxo-4-azaandrost-1-ene-17-carboxamide]
potency at inhibiting type II 5α-reductase as compared with finasteride (type II 5α-reductase): approximately 3 times | Absolute bioavailability [1]: about 60% | Absolute bioavailability, range ([1]; range in brackets): 40%-94% | potency at inhibiting the type I isoform as compared with finasteride (type I 5α-reductase): more than 100 times | solubility in ethanol (ethanol): soluble | solubility in methanol (methanol): soluble | solubility in polyethylene glycol 400 (polyethylene glycol 400): soluble | solubility in water (water): insoluble

CC(C)(C)NC(=O)[C@H]1CC[C@H]2[C@@H]3CC[C@H]4NC(=O)C=C[C@]4(C)[C@H]3CC[C@]12C [Finasteride]
scalp DHT reduction (DHT): 64% | serum DHT reduction (DHT): 68% | progression of hair loss and hair growth compared with control group (androgenic alopecia): slowed the progression of hair loss and increased hair growth
